Patent US11712438B2, “Phenyl derivatives as PGE2 receptor modulators” (IDORSIA PHARMACEUTICALS LTD, priority 2017, dated 2023)

Columns and labels:
Test in all cases: cell-based
PTRGER4 (EP4) = PTRGER4 (EP4) (Homo sapiens, UniProt P35408);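 note: assay plate preincubated 15 min at 37 °C, after which PGE2 was added at 20 nM final and incubation continued 120 min at 37 °C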
EP4 = EP4 (Homo sapiens, UniProt P35408);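 note: inhibition of PGE2-evoked (6 nM) cAMP accumulation in BT549 breast cancer cells endogenously expressing EP4, cAMP read by HTRF competitive immunoassay after 30 min at room temperature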
Chain of EP4 (P35408 whole entry): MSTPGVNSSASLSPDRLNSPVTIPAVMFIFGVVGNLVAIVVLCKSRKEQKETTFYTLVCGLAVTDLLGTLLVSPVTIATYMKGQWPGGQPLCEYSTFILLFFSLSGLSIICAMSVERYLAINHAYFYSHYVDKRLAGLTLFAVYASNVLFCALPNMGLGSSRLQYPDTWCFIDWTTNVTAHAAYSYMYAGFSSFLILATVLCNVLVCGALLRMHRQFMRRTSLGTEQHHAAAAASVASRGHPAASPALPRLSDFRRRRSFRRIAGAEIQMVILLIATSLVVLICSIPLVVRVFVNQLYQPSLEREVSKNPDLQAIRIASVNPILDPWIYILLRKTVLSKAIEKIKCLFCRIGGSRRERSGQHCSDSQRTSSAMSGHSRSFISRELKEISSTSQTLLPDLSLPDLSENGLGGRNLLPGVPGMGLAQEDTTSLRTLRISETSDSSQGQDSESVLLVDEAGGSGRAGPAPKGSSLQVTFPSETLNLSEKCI

EP2 = EP2 (Homo sapiens, UniProt P43116);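 note: SF295 glioblastoma cells with endogenous EP2 only, PGE2-stimulated cAMP accumulation read by HTRF competitive immunoassay, 45 min pre-incubation then 30 min at room temperature, IBMX in buffer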
Chain of EP2 (P43116 whole entry): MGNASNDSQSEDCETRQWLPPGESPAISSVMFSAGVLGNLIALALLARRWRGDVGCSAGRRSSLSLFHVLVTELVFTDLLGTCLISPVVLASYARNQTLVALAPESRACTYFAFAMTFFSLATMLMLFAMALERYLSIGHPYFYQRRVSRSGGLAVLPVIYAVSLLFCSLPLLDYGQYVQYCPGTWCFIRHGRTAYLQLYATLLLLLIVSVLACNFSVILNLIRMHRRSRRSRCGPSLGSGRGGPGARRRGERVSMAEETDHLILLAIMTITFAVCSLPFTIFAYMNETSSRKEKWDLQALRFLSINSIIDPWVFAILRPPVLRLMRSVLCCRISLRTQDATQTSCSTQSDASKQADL
Method: The antagonistic activities of the compounds of formula (I) on the EP2 and EP4 receptors are also determined in accordance with the following experimental method.
Human tumor cell lines expressing endogenously either EP4 or EP2 are used and cAMP accumulation in cells upon PGE2 stimulation is monitored. SF295 glioblastoma cells express high endogenous EP2 and no EP4,whereas BT549 breast cancer cells, express high endogenous EP4 levels and very low EP2 levels.
As a detection method for cAMP the HTRF (homogeneous time resolved fluorescence) Cisbio kit (HTRF cAMP dynamic 2 kit 20′000 tests Cisbio Cat. #62AM4PEC) was used, which is based on a competitive immunoassay using a Cryptate-labeled anti-cAMP antibody and d2-labeled cAMP. Native cAMP produced by cells or unlabeled cAMP (for the standard curve) compete with exogenously added d2-labeled cAMP (acceptor) for binding to monoclonal anti-cAMP-Eu3+ Cryptate (donor). A FRET signal (Fluorescence Resonance Energy Transfer) is obtained only if the labeled anti-cAMP antibody binds the d2 labelled cAMP, thus the specific signal (i.e. energy transfer) is inversely proportional to the concentration of cAMP in the standard or sample.
The SF295 cells (NCI/No. 0503170) are detached from culture dishes with a cell dissociation buffer (Invitrogen, 13151-014), and collected in growing medium (GM: RPM11640 (Invitrogen 21875)/10% FCS, 1% Penicilin/streptomycin). Cells are counted washed and resuspended in assay buffer (AB; HBSS, 20 mM HEPES, 0.2% BSA; 2 mM IBMX). 4′000 cells in 5 μl of AB are seeded per well of a small volume 384 well plate (black with flat bottom, Greiner 784076).
PGE2 (Cayman 14010, stock solution: 750 in DMSO) is used as agonist at 75 nM final concentration, corresponding to EC80.
Two point five microliters of diluted compounds are transferred into the assay plate. Plate is pre-incubated 45 minutes at room temperature. Subsequently, 2.5 microliters of PGE2 (final conc. 75 nM) are transferred into the assay plate. Plate is incubated 30 minutes at room temperature.
For each compound concentration the percentage of cAMP compared to DMSO control value as average±STDEV (each concentration is measured in duplicate) is calculated.

PTGER2 (EP2) = PTGER2 (EP2) (Homo sapiens, UniProt P43116)
Chain of PTGER2 (EP2) (P43116 whole entry): as above
From the text: The assay is using the PathHunter™ HEK 293 PTGER2 and PTGER4 b-arrestin cell lines from DiscoverX. The system is based on the Enzyme Fragment Complementation Technology. Two complementing fragments of the b-galactosidase enzyme are expressed within stably transfected cells. The larger portion of b-gal, termed EA for Enzyme Acceptor, is fused to the C-terminus of b-arrestin 2. The smaller fragment, termed ProLink™ tag, is fused to PTGER2 (EP2) or PTRGER4 (EP4) at the C-terminus. Upon activation, b-arrestin is recruited which forces the interaction of ProLink and EA, allowing complementation of the two fragments of b-gal and the formation of a functional enzyme which is capable of hydrolysing the substrate and generating a chemiluminescent signal.
The HEK 293 PTGER2 b-arrestin cells (DiscoverX 93-021-4C1) are detached from culture dishes with a cell dissociation buffer (Invitrogen, 13151-014), and collected in growing medium (GM: DMEM+Glutamax-I (Invitrogen 32430)/10% FCS, 1% Penicilin/streptomycin). 5000 cells per well of a 384 well plate (white with white bottom Greiner 781080) are seeded in 20 ul per well of GM. Plate is incubated at 37° C., 5% CO2 for 24 hours.
Stock solutions of test compounds are made at a concentration of 10 mM in DMSO, and serially diluted in DMSO to concentrations required for inhibition dose response curves (tested concentration range 10 μM-2 nM or 1 μM-0.2 nM).
PGE2 (Cayman 14010, stock solution: 10 mM in DMSO) is used as agonist at 5 μM final concentration, corresponding to EC80.
Five microliters of diluted compounds are transferred into the assay plate. Plate is pre-incubated 15 minutes at 37° C. Then five microliters of PGE2 (final conc. 5 μM) are transferred into the assay plate. Plate is incubated 120 minutes at 37° C.
Twelve μl of reagent are transferred to the assay plate and incubate for 1 hour at room temperature in the dark. Luminescence counts are read on a BMG Fluostar Optima reader according to manufacturer's instructions.
For each compound concentration calculate of the percentage of activity compared to DMSO control value as average±STDEV. (each concentration is measured in duplicate)
When compounds were measured multiple times, mean values are given.

Chain of PTRGER4 (EP4) (P35408 whole entry): as the sequence (P35408 whole entry) above

| IC50 (PTRGER4 (EP4)) | IC50 (EP4) | IC50 (EP2) | IC50 (PTGER2 (EP2)) | Structure (SMILES) |
| --- | --- | --- | --- | --- |
|  | 626 nM | 343 nM |  | CCOc1cc(-c2cc(NCCc3c(OC)cc(Br)cc3OC)ncn2)ccc1C(=O)O [Example 52, 4-{6-[2-(4-Bromo-2,6-dimethoxy-phenyl)-ethylamino]-pyrimidin-4-yl}-2-ethoxy-benzoic acid] |
|  | 30 nM | 55 nM |  | O=C(O)c1sc(-c2cc(NCCc3c(F)cc(Br)cc3F)ncn2)cc1OCCO [Example 32, 5-{6-[2-(4-Bromo-2,6-difluoro-phenyl)-ethylamino]-pyrimidin-4-yl}-3-(2-hydroxy-ethoxy)-thiophene-2-carboxylic acid] |
|  | 1080 nM | 642 nM |  | Cn1[nH]c(=O)c2ccc(-c3cc(NCCc4ccc(Br)cc4)ncn3)cc21 [Example 9, 6-{6-[2-(4-Bromo-phenyl)-ethylamino]-pyrimidin-4-yl}-1-methyl-1,2-dihydro-indazol-3-one] |
|  | 617 nM | 885 nM |  | Oc1c(F)cc(-c2cc(NCCc3ccc(Br)cc3)ncn2)cc1F [Example 12, 4-{6-[2-(4-Bromo-phenyl)-ethylamino]-pyrimidin-4-yl}-2,6-difluoro-phenol] |
| 703 nM |  |  | 175 nM | O=C1Cc2cc(-c3cc(NCCc4c(F)cc(Br)cc4F)ncn3)ccc2N1 [Example 312, 5-{6-[2-(4-Bromo-2,6-difluoro-phenyl)-ethylamino]-pyrimidin-4-yl}-1,3-dihydro-indol-2-one] |
| 351 nM |  |  | 265 nM | O=C(O)Cc1ccc(-c2cc(NCCc3c(F)cc(Br)cc3F)ncn2)cc1OC(F)(F)F [Example 236, (4-{6-[2-(4-Bromo-2,6-difluoro-phenyl)-ethylamino]-pyrimidin-4-yl}-2-trifluoromethoxy-phenyl)-acetic acid] |
| 368 nM |  |  | 65 nM | O=c1[nH]c2ccc(-c3cc(NCCc4c(F)cc(Br)cc4F)ncn3)cc2o1 [Example 266, 6-{6-[2-(4-Bromo-2,6-difluoro-phenyl)-ethylamino]-pyrimidin-4-yl}-3H-benzooxazol-2-one] |
| 387 nM |  |  | 300 nM | CCOc1cc(-c2cc(NCCc3c(F)cc(Br)cc3F)ncn2)ccc1C(=O)C(=O)O [Example 239, (4-{6-[2-(4-Bromo-2,6-difluoro-phenyl)-ethylamino]-pyrimidin-4-yl}-2-ethoxy-phenyl)-oxo-acetic acid] |
|  | 262 nM | 257 nM |  | O=c1[nH]c(-c2ccc(-c3cc(NCCc4ccc(Br)cc4)ncn3)cc2)no1 [Example 14, 3-(4-{6-[2-(4-Bromo-phenyl)-ethylamino]-pyrimidin-4-yl}-phenyl)-[1,2,4]oxadiazol-5(4H)-one] |
| 255 nM |  |  | 145 nM | CCNC(=O)c1ccc(-c2cc(NCCc3c(F)cc(Br)cc3F)ncn2)cc1OCC [Example 299, 4-{6-[2-(4-Bromo-2,6-difluoro-phenyl)-ethylamino]-pyrimidin-4-yl}-2-ethoxy-N-ethyl-benzamide] |
|  | 36 nM | 46 nM |  | CCOc1cc(-c2cc(NCCc3ccc(Br)cc3Cl)ncn2)sc1-c1noc(=O)[nH]1 [Example 124, 3-(5-{6-[2-(4-Bromo-2-chloro-phenyl)-ethylamino]-pyrimidin-4-yl}-3-ethoxy-thiophen-2-yl)-[1,2,4]oxadiazol-5(4H)-one] |
| 893 nM |  |  | 100 nM | COc1cc(C(N)=O)ccc1-c1cc(NCCc2c(F)cc(Br)cc2F)ncn1 [Example 292, 4-{6-[2-(4-Bromo-2,6-difluoro-phenyl)-ethylamino]-pyrimidin-4-yl}-3-methoxy-benzamide] |
|  | 834 nM | 490 nM |  | O=c1[nH]c(-c2cccc(-c3cc(NCCc4ccc(Br)cc4)ncn3)c2)no1 [Example 147, 3-(3-{6-[2-(4-Bromo-phenyl)-ethylamino]-pyrimidin-4-yl}-phenyl)-[1,2,4]oxadiazol-5(4H)-one] |
| 661 nM |  |  | 695 nM | CCOc1cc(-c2cc(NCCc3cc(F)c(C(F)F)cc3OC)ncn2)ccc1C(=O)O [Example 183, 4-{6-[2-(4-Difluoromethyl-5-fluoro-2-methoxy-phenyl)-ethylamino]-pyrimidin-4-yl}-2-ethoxy-benzoic acid] |

Further lines, the compound ahead of its results:

| Structure (SMILES) | IC50 (PTRGER4 (EP4)) | IC50 (EP4) | IC50 (EP2) | IC50 (PTGER2 (EP2)) |
| --- | --- | --- | --- | --- |
| O=C(O)c1sc(-c2cc(NCCc3ccc(C(F)(F)F)cc3)ncn2)cc1F [Example 22, 3-Fluoro-5-{6-[2-(4-trifluoromethyl-phenyl)-ethylamino]-pyrimidin-4-yl}-thiophene-2-carboxylic acid] | 187 nM | 68 nM | 759 nM |  |
| CCOc1cc(-c2cc(NCCc3ccc(OC)cc3)ncn2)sc1C(=O)O [Example 60, 3-Ethoxy-5-{6-[2-(4-methoxy-phenyl)-ethylamino]-pyrimidin-4-yl}-thiophene-2-carboxylic acid] | 139 nM | 81 nM | 376 nM |  |
| COc1cc(SC)ccc1CCNc1cc(-c2ccc(C(=O)O)c(OC3CCC3)c2)ncn1 [Example 8, 2-Cyclobutoxy-4-{6-[2-(2-methoxy-4-methylsulfanyl-phenyl)-ethylamino]-pyrimidin-4-yl}-benzoic acid] |  | 262 nM | 340 nM |  |
| COc1cc(-c2cc(NCCc3ccc(Br)cc3)ncn2)ccc1OCCO [Example 16, 2-(4-{6-[2-(4-Bromo-phenyl)-ethylamino]-pyrimidin-4-yl}-2-methoxy-phenoxy)-ethanol] |  | 914 nM | 795 nM |  |
| CCOc1cc(-c2cc(NCCc3ccc(Br)cc3)ncn2)sc1C(=N)NO [Example 129, 5-{6-[2-(4-Bromo-phenyl)-ethylamino]-pyrimidin-4-yl}-3-ethoxy-N-hydroxy-thiophene-2-carboxamidine] | 45 nM | 247 nM | 372 nM |  |
| CCOc1cc(-c2cc(NCCc3cc(C)c(C)cc3OC)ncn2)sc1C(=O)O [Example 5, 3-Ethoxy-5-{6-[2-(2-methoxy-4,5-dimethyl-phenyl)-ethylamino]-pyrimidin-4-yl}-thiophene-2-carboxylic acid] |  | 6 nM | 45 nM |  |
| CCOc1cc(-c2cc(NCCc3cc(OC)cc(OC)c3)ncn2)sc1C(=O)O [Example 67, 5-{6-[2-(3,5-Dimethoxy-phenyl)-ethylamino]-pyrimidin-4-yl}-3-ethoxy-thiophene-2-carboxylic acid] | 261 nM | 245 nM | 712 nM |  |
| CCOc1cc(-c2cc(NCCc3cccc(C(F)(F)F)c3)ncn2)sc1C(=O)O [Example 61, 3-Ethoxy-5-{6-[2-(3-trifluoromethyl-phenyl)-ethylamino]-pyrimidin-4-yl}-thiophene-2-carboxylic acid] | 363 nM | 161 nM | 715 nM |  |
| CCOc1cc(-c2cc(NCCc3ccc(Br)cc3)ncn2)sc1C(C)O (centres unmarked) [Example 145, 1-(5-{6-[2-(4-Bromo-phenyl)-ethylamino]-pyrimidin-4-yl}-3-ethoxy-thiophen-2-yl)-ethanol] |  | 690 nM | 1120 nM |  |
| COc1cc(-c2cc(NCCc3ccc(Br)cc3)ncn2)ccc1O [Example 10, 4-{6-[2-(4-Bromo-phenyl)-ethylamino]-pyrimidin-4-yl}-2-methoxy-phenol] |  | 798 nM | 931 nM |  |
| CCOc1cc(-c2cc(NCCc3ccc(Br)cc3)ncn2)sc1-c1noc(C2COC2)n1 [Example 142, [2-(4-Bromo-phenyl)-ethyl]-{6-[4-ethoxy-5-(5-oxetan-3-yl-[1,2,4]oxadiazol-3-yl)-thiophen-2-yl]-pyrimidin-4-yl}-amine] |  | 571 nM | 700 nM |  |
| CCOc1cc(-c2cc(NCCc3ccc(SC)cc3OC)ncn2)sc1C(=O)O [Example 4, 3-Ethoxy-5-{6-[2-(2-methoxy-4-methylsulfanyl-phenyl)-ethylamino]-pyrimidin-4-yl}-thiophene-2-carboxylic acid] |  | 5 nM | 38 nM |  |
| COc1cc(-c2cc(NCCc3ccc(Br)cc3)ncn2)sc1C1(O)COC1 [Example 13, 3-(5-{6-[2-(4-Bromo-phenyl)-ethylamino]-pyrimidin-4-yl}-3-methoxy-thiophen-2-yl)-oxetan-3-ol] |  | 636 nM | 294 nM |  |
| CC(C(=O)O)c1ccc(-c2cc(NCCc3ccc(Br)cc3)ncn2)s1 (racemic) [Example 159, rac-2-(5-{6-[2-(4-Bromo-phenyl)-ethylamino]-pyrimidin-4-yl}-thiophen-2-yl)-propionic acid] |  | 602 nM | 392 nM |  |
| CCOc1cc(-c2cc(NCCc3ccc(Br)cc3N(C)C)ncn2)sc1-c1noc(=O)[nH]1 [Example 109, 3-(5-{6-[2-(4-Bromo-2-dimethylamino-phenyl)-ethylamino]-pyrimidin-4-yl}-3-ethoxy-thiophen-2yl)-[1,2,4]oxadiazol-5(4H)-one] |  | 254 nM | 558 nM |  |
| CCOc1cc(-c2cc(NCCc3cc(C)c(C)cc3OC)ncn2)cc(F)c1CC(=O)O [Example 193, (2-Ethoxy-6-fluoro-4-{6-[2-(2-methoxy-4,5-dimethyl-phenyl)-ethylamino]-pyrimidin-4-yl}-phenyl)-acetic acid] | 159 nM |  |  | 797 nM |
| CCOc1cc(-c2cc(NCCc3ccc(F)cc3)ncn2)sc1C(=O)O [Example 80, 3-Ethoxy-5-{6-[2-(4-fluoro-phenyl)-ethylamino]-pyrimidin-4-yl}-thiophene-2-carboxylic acid] |  | 366 nM | 255 nM |  |
| CCOc1cc(-c2cc(NCCc3ccc(OC(F)F)cc3OC)ncn2)ccc1C(=O)O [Example 220, 4-{6-[2-(4-Difluoromethoxy-2-methoxy-phenyl)-ethylamino]-pyrimidin-4-yl}-2-ethoxy-benzoic acid] | 839 nM |  |  | 401 nM |
| CCOc1cc(-c2cc(NCCc3ccc(Br)cc3)ncn2)sc1-c1noc(CO)n1 [Example 143, [3-(5-{6-[2-(4-Bromo-phenyl)-ethylamino]-pyrimidin-4-yl}-3-ethoxy-thiophen-2-yl)-[1,2,4]oxadiazol-5-yl]-methanol] |  | 344 nM | 604 nM |  |
